Data reported in US20240425456A1, “DEGRADER” (ASKA PHARMACEUTICAL CO., LTD., priority 2021, published 2024).

Key:
Format in all cases: cell-based
[1] = target: T1, JAK1 (Homo sapiens, UniProt P23458); experiment: Degradation-inducing effect on JAK in Jurkat cells (chemiluminescent Western blotting), JAK1; details: 1 μmol/L, 6 hours, corrected by GAPDH, DMSO as 100%
T1 construct: endogenous in cells; host or cells: Jurkat cells
Method: (§1) The degradation-inducing effect of the compound of the present invention on JAK family proteins was evaluated in vitro using Jurkat cells, of which cell line was derived from human leukemic T cells.
(§2) JAK1, JAK2, JAK3, and Tyk2-positive Jurkat cells were seeded at a density of 1×10^5 cells/mL on 10 cm diameter dishes and then cultured in RPMI 1640 medium (FUJIFILM Wako Pure Chemical: catalog number: 189-02025) containing 10% FBS (Thermo Fisher Scientific: catalog number: 10437-028) at 5% CO2 and 37° C. for 3 days. Then, each of the test compounds (compounds of Examples 1 to 11 and Comparative Examples 1 and 2) was added to the dish at a final concentration of 1 μmol/L, and the cells were cultured in the presence of the test compound for 6 hours. After that, the cell culture medium was collected in a 15 mL centrifuge tube (1000 rpm (240× g), room temperature, 5 min), followed by washing with PBS (1000 rpm (240× g), room temperature, 5 min). Then, the cells in the centrifuge tube were collected in a 1.5 mL tube (3000 rpm (860× g), 4° C., 5 min), lysed using RIPA buffer (25 mmol/L Tris-HCl (pH 7.4), 25 mmol/L NaCl, 0.5 mmol/L EGTA (pH 8.0), 0.1% SDS, 1% protease inhibitor), sonicated at ice temperature (cycles of [7.5 sec sonication, 5 sec off] for 5 min) and subjected to centrifugation (15000 rpm (21600× g), 4° C., 30 min). The thus-obtained supernatant was used as the protein solution. Using the BCA protein assay kit (Thermo Fisher Scientific: catalog number: 23225), the protein concentration of the protein solution of each test compound was measured according to the kit instructions, and then adjusted to 1.4 mg/mL with RIPA buffer. The thus-adjusted protein solutions were subjected to a fully automated Western blotting device (Simple Westerns Wes: proteinSimple) to detect the protein levels (JAK1, JAK2, JAK3, and Tyk2 as the target proteins, and GAPDH (Glyceraldehyde 3-phosphate dehydrogenase) as the internal standard protein) in the protein solutions by chemiluminescent Western blotting.
(§3) Furthermore, the luminescence levels of JAK1, JAK2, JAK3, and Tyk2 detected by chemiluminescent Western blotting were quantified numerically by using an analysis software (Compass software for Simple Western (version 4.0.0)) attached to the fully automated Western blotting device. The numerical values of the quantified luminescence levels were corrected by the protein levels of the internal standard protein, i.e., GAPDH, (target protein levels/GAPDH protein levels), and compared among the test compounds with dimethyl sulfoxide (DMSO) as 100%.

[2] = target: T2, Tyk2 (Homo sapiens, UniProt P29597); experiment: Degradation-inducing effect on JAK in Jurkat cells (chemiluminescent Western blotting), Tyk2; details: 1 μmol/L, 6 hours; for JAK protein ratio of Jurkat cells after treatment of each test compound: Tyk2: corrected by GAPDH, DMSO as 100%
T2 construct: endogenous in cells; host or cells: Jurkat cells
T2 sequence (P29597 whole entry): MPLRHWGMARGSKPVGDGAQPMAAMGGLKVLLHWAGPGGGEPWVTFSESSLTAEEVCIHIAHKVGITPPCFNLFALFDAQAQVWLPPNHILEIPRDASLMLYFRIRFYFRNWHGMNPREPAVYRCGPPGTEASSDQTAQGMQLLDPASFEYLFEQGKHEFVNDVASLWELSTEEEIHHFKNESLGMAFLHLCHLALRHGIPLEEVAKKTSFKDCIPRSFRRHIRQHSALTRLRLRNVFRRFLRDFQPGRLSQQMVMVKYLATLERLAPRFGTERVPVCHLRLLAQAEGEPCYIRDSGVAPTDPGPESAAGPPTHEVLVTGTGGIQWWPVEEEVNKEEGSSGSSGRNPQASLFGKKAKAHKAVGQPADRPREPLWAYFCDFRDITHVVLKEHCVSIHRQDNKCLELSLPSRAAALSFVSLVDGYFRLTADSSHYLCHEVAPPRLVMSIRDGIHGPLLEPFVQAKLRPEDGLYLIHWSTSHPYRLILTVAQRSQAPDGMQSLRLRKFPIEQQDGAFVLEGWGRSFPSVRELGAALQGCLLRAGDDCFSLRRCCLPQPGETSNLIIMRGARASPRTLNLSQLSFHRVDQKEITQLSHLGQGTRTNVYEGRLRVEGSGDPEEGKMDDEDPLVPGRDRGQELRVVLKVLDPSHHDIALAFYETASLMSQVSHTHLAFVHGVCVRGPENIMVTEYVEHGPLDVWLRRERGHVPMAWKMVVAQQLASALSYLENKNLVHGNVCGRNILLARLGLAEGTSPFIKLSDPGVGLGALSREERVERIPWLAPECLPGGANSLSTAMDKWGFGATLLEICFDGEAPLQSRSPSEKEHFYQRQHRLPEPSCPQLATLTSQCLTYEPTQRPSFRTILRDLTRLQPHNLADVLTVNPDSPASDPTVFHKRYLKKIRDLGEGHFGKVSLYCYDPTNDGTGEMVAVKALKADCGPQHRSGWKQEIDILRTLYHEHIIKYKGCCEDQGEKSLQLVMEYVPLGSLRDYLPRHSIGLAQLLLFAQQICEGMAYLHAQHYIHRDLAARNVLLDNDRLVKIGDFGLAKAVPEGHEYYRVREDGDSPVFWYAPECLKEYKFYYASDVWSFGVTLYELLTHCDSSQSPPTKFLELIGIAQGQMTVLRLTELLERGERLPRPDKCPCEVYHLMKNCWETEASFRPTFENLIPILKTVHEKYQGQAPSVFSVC
Method: as §1, §2, §3

[3] = target: T3, JAK2 (Homo sapiens, UniProt O60674); experiment: Degradation-inducing effect on JAK in Jurkat cells (chemiluminescent Western blotting), JAK2; details: 1 μmol/L, 6 hours, corrected by GAPDH, DMSO as 100%
T3 construct: endogenous in cells; host or cells: Jurkat cells
T3 sequence (O60674 whole entry): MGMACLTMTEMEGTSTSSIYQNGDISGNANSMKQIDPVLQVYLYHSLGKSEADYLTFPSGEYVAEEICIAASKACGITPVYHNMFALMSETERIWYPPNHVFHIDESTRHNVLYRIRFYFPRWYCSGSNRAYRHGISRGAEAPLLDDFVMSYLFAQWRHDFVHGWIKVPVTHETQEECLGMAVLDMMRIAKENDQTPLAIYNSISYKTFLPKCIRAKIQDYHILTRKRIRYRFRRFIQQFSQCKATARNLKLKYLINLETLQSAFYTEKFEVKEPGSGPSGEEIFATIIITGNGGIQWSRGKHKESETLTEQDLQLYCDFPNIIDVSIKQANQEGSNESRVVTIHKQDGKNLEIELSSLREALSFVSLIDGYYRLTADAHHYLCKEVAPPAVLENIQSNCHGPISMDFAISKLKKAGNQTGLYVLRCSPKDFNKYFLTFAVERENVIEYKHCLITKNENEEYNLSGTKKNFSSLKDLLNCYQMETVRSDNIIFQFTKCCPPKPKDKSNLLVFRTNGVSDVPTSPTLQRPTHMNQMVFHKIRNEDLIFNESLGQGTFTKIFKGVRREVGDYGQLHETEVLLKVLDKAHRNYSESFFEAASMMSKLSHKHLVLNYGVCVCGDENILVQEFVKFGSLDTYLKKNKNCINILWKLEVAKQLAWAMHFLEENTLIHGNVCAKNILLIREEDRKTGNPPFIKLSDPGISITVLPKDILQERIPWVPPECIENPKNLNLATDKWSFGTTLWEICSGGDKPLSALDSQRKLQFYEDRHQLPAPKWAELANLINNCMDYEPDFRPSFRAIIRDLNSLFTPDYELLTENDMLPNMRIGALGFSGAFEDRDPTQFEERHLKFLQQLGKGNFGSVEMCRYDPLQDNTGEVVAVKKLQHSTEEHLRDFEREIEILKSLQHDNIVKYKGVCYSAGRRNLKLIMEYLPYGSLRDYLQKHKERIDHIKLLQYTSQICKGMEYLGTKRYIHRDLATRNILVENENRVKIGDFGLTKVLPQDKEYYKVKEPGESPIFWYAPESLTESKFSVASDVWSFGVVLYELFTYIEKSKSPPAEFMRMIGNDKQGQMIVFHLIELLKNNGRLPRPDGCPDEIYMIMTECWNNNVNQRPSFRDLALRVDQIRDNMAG
Method: as §1, §2, §3

[4] = target: T4, JAK3 (Homo sapiens, UniProt P52333); experiment: Degradation-inducing effect on JAK in Jurkat cells (chemiluminescent Western blotting), JAK3; details: 1 μmol/L, 6 hours, corrected by GAPDH, DMSO as 100%, read-out: JAK protein ratio of Jurkat cells after treatment of each test compound: JAK3
T4 construct: endogenous in cells; host or cells: Jurkat cells
T4 sequence (P52333 1-1124): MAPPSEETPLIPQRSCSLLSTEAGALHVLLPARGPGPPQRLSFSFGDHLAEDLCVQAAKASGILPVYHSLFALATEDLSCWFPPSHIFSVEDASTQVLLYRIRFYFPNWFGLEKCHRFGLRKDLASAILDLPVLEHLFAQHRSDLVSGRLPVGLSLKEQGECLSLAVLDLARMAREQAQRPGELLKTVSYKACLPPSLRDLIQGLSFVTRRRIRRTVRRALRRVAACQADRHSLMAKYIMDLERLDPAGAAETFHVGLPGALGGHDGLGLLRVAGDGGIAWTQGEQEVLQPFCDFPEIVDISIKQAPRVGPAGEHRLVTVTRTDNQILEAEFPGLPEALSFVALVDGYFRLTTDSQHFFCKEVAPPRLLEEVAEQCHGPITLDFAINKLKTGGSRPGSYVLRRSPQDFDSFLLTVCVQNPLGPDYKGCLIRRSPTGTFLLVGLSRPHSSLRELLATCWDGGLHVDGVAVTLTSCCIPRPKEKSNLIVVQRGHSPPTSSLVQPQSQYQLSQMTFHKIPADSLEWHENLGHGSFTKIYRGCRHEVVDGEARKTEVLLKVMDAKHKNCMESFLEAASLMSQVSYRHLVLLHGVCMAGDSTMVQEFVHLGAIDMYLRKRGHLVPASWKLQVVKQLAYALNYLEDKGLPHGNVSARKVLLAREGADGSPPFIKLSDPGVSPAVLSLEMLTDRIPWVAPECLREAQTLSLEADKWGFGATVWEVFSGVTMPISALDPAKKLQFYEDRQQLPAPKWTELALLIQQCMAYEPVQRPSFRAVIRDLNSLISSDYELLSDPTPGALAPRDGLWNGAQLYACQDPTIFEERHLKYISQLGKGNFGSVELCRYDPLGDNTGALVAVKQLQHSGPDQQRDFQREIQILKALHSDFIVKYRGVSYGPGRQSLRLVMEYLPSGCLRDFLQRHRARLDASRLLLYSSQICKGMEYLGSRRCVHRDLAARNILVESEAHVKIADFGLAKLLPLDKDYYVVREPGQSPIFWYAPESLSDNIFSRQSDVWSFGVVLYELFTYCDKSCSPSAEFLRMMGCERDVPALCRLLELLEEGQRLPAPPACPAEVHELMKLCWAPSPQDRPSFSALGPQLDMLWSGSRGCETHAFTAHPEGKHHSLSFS
Method: as §1, §2, §3

T1 sequence (P23458 whole entry): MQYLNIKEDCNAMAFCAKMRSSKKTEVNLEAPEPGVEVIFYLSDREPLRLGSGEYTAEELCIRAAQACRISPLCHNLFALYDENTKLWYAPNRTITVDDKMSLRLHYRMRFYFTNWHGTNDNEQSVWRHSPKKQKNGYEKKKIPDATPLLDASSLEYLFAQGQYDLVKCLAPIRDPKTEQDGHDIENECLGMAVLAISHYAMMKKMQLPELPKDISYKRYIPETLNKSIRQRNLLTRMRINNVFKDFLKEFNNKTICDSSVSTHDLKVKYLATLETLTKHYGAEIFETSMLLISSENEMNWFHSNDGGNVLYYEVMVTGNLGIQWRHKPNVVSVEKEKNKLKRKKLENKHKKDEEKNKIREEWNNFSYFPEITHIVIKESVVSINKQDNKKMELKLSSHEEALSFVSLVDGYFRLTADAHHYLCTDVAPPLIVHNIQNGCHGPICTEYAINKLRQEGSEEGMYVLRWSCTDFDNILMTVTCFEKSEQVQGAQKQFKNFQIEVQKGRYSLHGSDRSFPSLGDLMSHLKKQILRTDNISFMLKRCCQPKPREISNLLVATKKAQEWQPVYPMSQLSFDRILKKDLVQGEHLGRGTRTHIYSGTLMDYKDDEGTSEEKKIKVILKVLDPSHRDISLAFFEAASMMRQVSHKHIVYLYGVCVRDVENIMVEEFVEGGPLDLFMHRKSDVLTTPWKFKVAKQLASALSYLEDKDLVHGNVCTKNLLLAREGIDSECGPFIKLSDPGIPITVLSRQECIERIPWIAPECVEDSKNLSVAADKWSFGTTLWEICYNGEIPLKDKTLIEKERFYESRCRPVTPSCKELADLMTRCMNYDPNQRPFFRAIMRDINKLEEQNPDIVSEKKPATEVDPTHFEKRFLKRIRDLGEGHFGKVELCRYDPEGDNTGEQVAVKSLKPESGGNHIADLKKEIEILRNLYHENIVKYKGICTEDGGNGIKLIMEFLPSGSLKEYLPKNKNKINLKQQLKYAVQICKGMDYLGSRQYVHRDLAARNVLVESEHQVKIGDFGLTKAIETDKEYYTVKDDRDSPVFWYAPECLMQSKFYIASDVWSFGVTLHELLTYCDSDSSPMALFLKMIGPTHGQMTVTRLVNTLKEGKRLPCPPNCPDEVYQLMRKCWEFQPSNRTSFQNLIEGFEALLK

SMILES: CNC(=O)c1cnc(Nc2ccc(F)cn2)cc1Nc1cccc(C(=O)NCCCCCCCCCC(=O)N[C@H](C(=O)N2C[C@H](O)C[C@H]2C(=O)NCc2ccc(-c3scnc3C)cc2)C(C)(C)C)c1OC [Comparative Example 1, 6-((5-Fluoropyridin-2-yl)amino)-4-((3-((10-(((S)-1-((2S,4R)-4-hydroxy 2-((4-(4-methylthiazol-5-yl)benzyl)carbamoyl)pyrrolidin-1-yl)-3,3-dimethyl-1-oxobutan-2-yl)amino)-10-oxodecyl)carbamoyl)-2-methoxyphenyl)amino)-N-methylnicotinamide, reference compound]
- JAK protein ratio of Jurkat cells after treatment of each test compound: JAK1 [1]: 92.4%
- protein level of Tyk2 (in words) [2]: not reduced
- JAK protein ratio of Jurkat cells after treatment of each test compound: Tyk2 [2]: 78.9%
- JAK protein ratio of Jurkat cells after treatment of each test compound: JAK2 [3]: 87.6%
- JAK3 protein level relative to DMSO at 1 µM [4]: 83.3%

SMILES: CNC(=O)c1cnc(Nc2ccc(F)cn2)cc1Nc1cccc(C(=O)OCCCCCCCCCC(=O)N[C@H](C(=O)N2C[C@H](O)C[C@H]2C(=O)NCc2ccc(-c3scnc3C)cc2)C(C)(C)C)c1OC [Comparative Example 2, 10-(((S)-1-((2S,4R)-4-Hydroxy 2-((4-(4-methylthiazol-5-yl)benzyl)carbamoyl)pyrrolidin-1-yl)-3,3-dimethyl-1-oxobutan-2-yl)amino)-10-oxodecyl 3-((2-((5-fluoropyridin-2-yl)amino)-5-(methylcarbamoyl)pyridin-4-yl)amino)-2-methoxybenzoate, reference compound]
- JAK protein ratio of Jurkat cells after treatment of each test compound: JAK1 [1]: 108.7%
- protein level of Tyk2 (in words) [2]: not reduced
- JAK protein ratio of Jurkat cells after treatment of each test compound: Tyk2 [2]: 100.1%
- JAK protein ratio of Jurkat cells after treatment of each test compound: JAK2 [3]: 101.7%
- JAK3 protein level relative to DMSO at 1 µM [4]: 89.8%

SMILES: CNC(=O)c1cnc(Nc2ccc(C(=O)NCCCC(=O)N[C@H](C(=O)N3C[C@H](O)C[C@H]3C(=O)NCc3ccc(-c4scnc4C)cc3)C(C)(C)C)cn2)cc1Nc1cccc(C(=O)NC)c1OC [Example 1]
- JAK protein ratio of Jurkat cells after treatment of each test compound: JAK1 [1]: 111.9%
- JAK protein ratio of Jurkat cells after treatment of each test compound: Tyk2 [2]: 82.8%
- JAK protein ratio of Jurkat cells after treatment of each test compound: JAK2 [3]: 121.3%
- JAK3 protein level relative to DMSO at 1 µM [4]: 114%

SMILES: CNC(=O)c1cnc(Nc2ccc(C(=O)NCCCCCC(=O)N[C@H](C(=O)N3C[C@H](O)C[C@H]3C(=O)NCc3ccc(-c4scnc4C)cc3)C(C)(C)C)cn2)cc1Nc1cccc(C(=O)NC)c1OC [Example 2, 6-((5-((6-(((S)-1-((2S,4R)-4-Hydroxy-2-((4-(4-methylthiazol-5-yl)benzyl)carbamoyl)pyrrolidin-1-yl)-3,3-dimethyl-1-oxobutan-2-yl)amino)-6-oxohexyl)carbamoyl)pyridin-2-yl)amino)-4-((2-methoxy-3-(methylcarbamoyl)phenyl)amino)-N-methylnicotinamide]
- JAK protein ratio of Jurkat cells after treatment of each test compound: JAK1 [1]: 139.2%
- JAK protein ratio of Jurkat cells after treatment of each test compound: Tyk2 [2]: 48.8%
- JAK protein ratio of Jurkat cells after treatment of each test compound: JAK2 [3]: 112.6%
- JAK3 protein level relative to DMSO at 1 µM [4]: 118%

SMILES: CNC(=O)c1cnc(Nc2ccc(C(=O)NCCCCCCCC(=O)N[C@H](C(=O)N3C[C@H](O)C[C@H]3C(=O)NCc3ccc(-c4scnc4C)cc3)C(C)(C)C)cn2)cc1Nc1cccc(C(=O)NC)c1OC [Example 3, 6-((5-((8-(((S)-1-((2S,4R)-4-Hydroxy-2-((4-(4-methylthiazol-5-yl)benzyl)carbamoyl)pyrrolidin-1-yl)-3,3-dimethyl-1-oxobutan-2-yl)amino)-8-oxooctyl)carbamoyl)pyridin-2-yl)amino)-4-((2-methoxy-3-(methylcarbamoyl)phenyl)amino)-N-methylnicotinamide]
- JAK protein ratio of Jurkat cells after treatment of each test compound: JAK1 [1]: 118.2%
- JAK protein ratio of Jurkat cells after treatment of each test compound: Tyk2 [2]: 51.6%
- JAK protein ratio of Jurkat cells after treatment of each test compound: JAK2 [3]: 117.6%
- JAK3 protein level relative to DMSO at 1 µM [4]: 97.5%

SMILES: CNC(=O)c1cnc(Nc2ccc(C(=O)NCCCCCCCCC(=O)N[C@H](C(=O)N3C[C@H](O)C[C@H]3C(=O)NCc3ccc(-c4scnc4C)cc3)C(C)(C)C)cn2)cc1Nc1cccc(C(=O)NC)c1OC [Example 4, 6-((5-((9-(((S)-1-((2S,4R)-4-Hydroxy-2-((4-(4-methylthiazol-5-yl)benzyl)carbamoyl)pyrrolidin-1-yl)-3,3-dimethyl-1-oxobutan-2-yl)amino)-9-oxononyl)carbamoyl)pyridin-2-yl)amino)-4-((2-methoxy-3-(methylcarbamoyl)phenyl)amino)-N-methylnicotinamide]
- JAK protein ratio of Jurkat cells after treatment of each test compound: JAK1 [1]: 129.1%
- JAK protein ratio of Jurkat cells after treatment of each test compound: Tyk2 [2]: 41.7%
- JAK protein ratio of Jurkat cells after treatment of each test compound: JAK2 [3]: 158.8%
- JAK3 protein level relative to DMSO at 1 µM [4]: 129%

SMILES: CNC(=O)c1cnc(Nc2ccc(C(=O)NCCCCCCCCCC(=O)N[C@H](C(=O)N3C[C@H](O)C[C@H]3C(=O)NCc3ccc(-c4scnc4C)cc3)C(C)(C)C)cn2)cc1Nc1cccc(C(=O)NC)c1OC [Example 5, 6-((5-((10-(((S)-1-((2S,4R)-4-Hydroxy-2-((4-(4-methylthiazol-5-yl)benzyl)carbamoyl)pyrrolidin-1-yl)-3,3-dimethyl-1-oxobutan-2-yl)amino)-10-oxodecyl)carbamoyl)pyridin-2-yl)amino)-4-((2-methoxy-3-(methylcarbamoyl)phenyl)amino)-N-methylnicotinamide]
- JAK protein ratio of Jurkat cells after treatment of each test compound: JAK1 [1]: 122.8%
- JAK protein ratio of Jurkat cells after treatment of each test compound: Tyk2 [2]: 23.1%
- JAK protein ratio of Jurkat cells after treatment of each test compound: JAK2 [3]: 121.0%
- JAK3 protein level relative to DMSO at 1 µM [4]: 112%
